Assay results from patent US9617602B2, “Methods and compositions for determining resistance to androgen receptor therapy” (Aragon Pharmaceuticals, Inc., priority 2012, dated 2017).
Like-named read-outs stand apart in the source and are kept apart here.

Tests used:
[1] = tested on: prostate specific antigen (PSA); format: in vivo
Excerpt: Patients with mCRPC were assigned sequentially to dose levels in cohorts of 3 to 6 patients per dose level using standard 3×3 dose-escalation criteria.
Eligible patients who signed informed consent documents were initially enrolled into a dose escalation cohort where they will receive a single oral dose of ARN-509 followed by a one-week observation period (PK Week). Continuous dosing began on Cycle 1 Day 1 assuming no unacceptable toxicities were observed.
A minimum of 3 subjects at each dose level were monitored for a DLT through day 28 of Cycle 1.
The starting dose was 30 mg/day, with escalations to 60 mg, 90 mg, 120 mg, 180 mg, 240 mg, 300 mg, 390 mg, and 480 mg daily. It was anticipated that these dose levels span the anticipated pharmacologically active dose range and be within the safety margin indicated by the preclinical toxicology results.
Following the selection of 240 mg as the RP2D, additional eligible patients were enrolled in the Phase 2 portion of the study, consisting of 3 concurrent expansion cohorts at the MTD and/or RP2D to gather additional safety information and provide an initial signal of anti-tumor activity. The three expansion cohorts included:
It was expected that each patient with mCRPC would receive at least 3 cycles (12 weeks) of continuous treatment and each patient with non-metastatic CRPC will receive at least 4 cycles (16 weeks) of continuous treatment. Treatment was discontinued at any time for protocol-defined disease progression or unacceptable toxicity. Tumor evaluations were performed every 3 cycles (12 weeks) for patients with mCRPC and every 4 cycles (16 weeks) for patients with non-metastatic CRPC. Safety was assessed from the first dose through at least four weeks after the last dose or until resolution of drug-related toxicity, or when toxicity is deemed irreversible, whichever was longer.

[2] = tested on: LNCaP cells; assay: Proliferation assay (CellTiter-Glo), agonist and antagonist mode; format: cell-based, human
[3] = tested on: LNCaP/AR(cs) cells; assay: as above; format: cell-based, human
[4] = tested on: LNCaP/AR(cs) xenograft tumors; assay: Tumor xenograft in castrated SHO male mice; format: in vivo
[5] = tested on: Class 1 resistant cell lines; assay: Endogenous gene transcriptional assay (real-time PCR of androgen responsive genes); format: cell-based, human
Protocol: (§1) Total RNA was isolated using the Aurum™ total RNA isolation kit (BIO-RAD, Hercules, Calif.). RNA (1 μg) was reverse transcribed using the iScript cDNA synthesis kit (BIO-RAD, Hercules, Calif.) to produce cDNA. Real-time PCR was performed using the Applied Biosystems 7900HT instrument and SYBR Green PCR Master Mix (Applied Biosystems, Foster City, Calif.). PCR reactions were performed in 6 μL according to the manufacturer's protocol and a thermocycle protocol of 95° C. for 10 minutes followed by 40 cycles of 95° C. for 15 seconds and 58° C. for 1 minute. Androgen responsive gene (PSA, SLUG, TMPRSS2, STEAP4, FKBP5, ORM1, NOV, FASN, NKX3.1, AMIGO2, BDNF, CAMK2N1, HPGD, NCAPD3, PLD1) expression was normalized to GAPDH expression and expressed relative to vehicle treatment of the parental cell line.

[6] = tested on: Class 2 resistant cell lines; assay: as above; format: cell-based, human
Protocol: as §1

## CNC(=O)c1ccc(N2C(=S)N(c3cnc(C#N)c(C(F)(F)F)c3)C(=O)C23CCC3)cc1F [ARN-509]
[1]; Cycle 4
  PSA, Patient 10: 102 % of TO
  PSA, Patient 13: 16.2 % of baseline
[1]; Cycle 4, 8 and 10
  PSA decline from baseline, Patient 7: > 90%
[1]; Cycle 11 and 12
  PSA below study start, Patient 13: > 60%
[1]; Patient 1
  12 week PSA Response: 30.49
[1]; Patient 1, Treatment Cycle 19
  PSA at Time of BEAMing Analysis [Percent of Baseline]: 195.4% of Baseline
[1]; Patient 2
  12 week PSA Response: −61.8
[1]; Patient 2, Treatment Cycle 10
  PSA at Time of BEAMing Analysis [Percent of Baseline]: 337.08% of Baseline
[1]; Patient 3
  12 week PSA Response: 22.7
[1]; Patient 3, Treatment Cycle 4
  PSA at Time of BEAMing Analysis [Percent of Baseline]: 122% of Baseline
[1]; Patient 4
  12 week PSA Response: 12.4
[1]; Patient 4, Treatment Cycle 5
  PSA at Time of BEAMing Analysis [Percent of Baseline]: 134% of Baseline
[1]; Patient 5
  12 week PSA Response: −70.65
[1]; Patient 5, Treatment Cycle 8
  PSA at Time of BEAMing Analysis [Percent of Baseline]: 16% of Baseline
[1]; Patient 6
  12 week PSA Response: −90.02
[1]; Patient 6, Treatment Cycle 10
  PSA at Time of BEAMing Analysis [Percent of Baseline]: 84.6% of Baseline
[1]; Patient 7
  12 week PSA Response: −98.6
[1]; Patient 7, Treatment Cycle 4
  PSA [Percent of Day 0]: 1.4% of Day 0
[1]; Patient 7, Treatment Cycle 8
  PSA [Percent of Day 0]: 3.3% of Day 0
[1]; Patient 7, Treatment Cycle 10
  PSA [Percent of Day 0]: 5.6% of Day 0
[1]; Patient 7, Treatment Cycle 15
  PSA [Percent of Day 0]: 41.2% of Day 0
[1]; Patient 7, Treatment Cycle 19
  PSA [Percent of Day 0]: 97.2% of Day 0
[1]; Patient 7, Treatment Cycle 22
  PSA [Percent of Day 0]: 281.0% of Day 0
  PSA at Time of BEAMing Analysis [Percent of Baseline]: 281% of Baseline
[1]; Patient 8
  12 week PSA Response: −62.2
[1]; Patient 8, Treatment Cycle 16
  PSA at Time of BEAMing Analysis [Percent of Baseline]: 10.2% of Baseline
[1]; Patient 9
  12 week PSA Response: 26.38
[1]; Patient 9, Treatment Cycle 7
  PSA at Time of BEAMing Analysis [Percent of Baseline]: 185% of Baseline
[1]; Patient 10
  12 week PSA Response: 2.33
[1]; Patient 10, Treatment Cycle 4
  PSA [Percent of Day 0]: 102% of Day 0
[1]; Patient 10, Treatment Cycle 7
  PSA [Percent of Day 0]: 245% of Day 0
  PSA at Time of BEAMing Analysis [Percent of Baseline]: 245% of Baseline
[1]; Patient 11
  12 week PSA Response: −49.76
[1]; Patient 11, Treatment Cycle 8
  PSA at Time of BEAMing Analysis [Percent of Baseline]: 143.88% of Baseline
[1]; Patient 12
  12 week PSA Response: −56.65
[1]; Patient 12, Treatment Cycle 7
  PSA at Time of BEAMing Analysis [Percent of Baseline]: 99.47% of Baseline
[1]; Patient 13
  12 week PSA Response: −83.79
[1]; Patient 13, Treatment Cycle 4
  PSA [Percent of Day 0]: 16.2% of Day 0
[1]; Patient 13, Treatment Cycle 11
  PSA [Percent of Day 0]: 31.7% of Day 0
  PSA at Time of BEAMing Analysis [Percent of Baseline]: 31.7% of Baseline
[1]; Patient 13, Treatment Cycle 12
  PSA [Percent of Day 0]: 39.5% of Day 0
[1]; Patient 14
  12 week PSA Response: −43.21
[1]; Patient 14, Treatment Cycle 11
  PSA at Time of BEAMing Analysis [Percent of Baseline]: 150.5% of Baseline
[1]; Patient 15
  12 week PSA Response: 164.14
[1]; Patient 15, Treatment Cycle 3
  PSA at Time of BEAMing Analysis [Percent of Baseline]: 220% of Baseline
[1]; Patient 16
  12 week PSA Response: 89.09
[1]; Patient 16, Treatment Cycle 4
  PSA at Time of BEAMing Analysis [Percent of Baseline]: 189% of Baseline
[1]; Patient 17
  12 week PSA Response: −45.86
[1]; Patient 17, Treatment Cycle 4
  PSA at Time of BEAMing Analysis [Percent of Baseline]: 54.14% of Baseline
[1]; Patient 18
  12 week PSA Response: −95.65
[1]; Patient 18, Treatment Cycle 6
  PSA at Time of BEAMing Analysis [Percent of Baseline]: 7.34% of Baseline
[1]; Patient 19
  12 week PSA Response: −71.19
[1]; Patient 19, Treatment Cycle 11
  PSA at Time of BEAMing Analysis [Percent of Baseline]: 196.86% of Baseline
[1]; Patient 20
  12 week PSA Response: −30.88
[1]; Patient 20, Treatment Cycle 21
  PSA at Time of BEAMing Analysis [Percent of Baseline]: 89.3% of Baseline
[1]; Patient 21
  12 week PSA Response: −74.43
[1]; Patient 21, Treatment Cycle 10
  PSA at Time of BEAMing Analysis [Percent of Baseline]: 46.91% of Baseline
[1]; Patient 22
  12 week PSA Response: −82.7
[1]; Patient 22, Treatment Cycle 25
  PSA at Time of BEAMing Analysis [Percent of Baseline]: 0.19% of Baseline
[1]; Patient 23
  12 week PSA Response: 97.78
[1]; Patient 23, Treatment Cycle 8
  PSA at Time of BEAMing Analysis [Percent of Baseline]: 222.46% of Baseline
[1]; Patient 24
  12 week PSA Response: −74.86
[1]; Patient 24, Treatment Cycle 25
  PSA at Time of BEAMing Analysis [Percent of Baseline]: 4.89% of Baseline
[1]; Patient 25
  12 week PSA Response: −30.07
[1]; Patient 25, Treatment Cycle 12
  PSA at Time of BEAMing Analysis [Percent of Baseline]: 161% of Baseline
[1]; Patient 26
  12 week PSA Response: 96.51
[1]; Patient 26, Treatment Cycle 5
  PSA at Time of BEAMing Analysis [Percent of Baseline]: 214.85% of Baseline
[1]; Patient 27
  12 week PSA Response: −0.89
[1]; Patient 27, Treatment Cycle 13
  PSA at Time of BEAMing Analysis [Percent of Baseline]: 20.69% of Baseline
[1]; Patient 28
  12 week PSA Response: −33.59
[1]; Patient 28, Treatment Cycle 10
  PSA at Time of BEAMing Analysis [Percent of Baseline]: 126% of Baseline
[1]; Patient 29
  12 week PSA Response: −58.44
[1]; Patient 29, Treatment Cycle 13
  PSA at Time of BEAMing Analysis [Percent of Baseline]: 105% of Baseline
[1]; across all dose groups
  Patients exhibiting a 12 week ≧50% decline in PSA compared to baseline: 14/30
[1]; human, in vivo, po, 28 days
  Recommended Phase 2 dose (RP2D): 240 mg
[2]; Homo sapiens, 168 h, read-out: Antagonist Proliferation Assay (% Viability)
  viability at 0.0001 µM: < 30%
[2]; [Antagonists] = 10 μM, 7 days
  Agonist Proliferation Assay (% Viability): + (‘+’ = <30)
[3]; Homo sapiens, LNCaP/AR, 168 h, read-out: Antagonist Proliferation Assay (% Viability)
  viability at 0.0001 µM: < 30%
[3]; LNCaP/AR(cs), [Antagonists] = 10 μM, 7 days
  Agonist Proliferation Assay (% Viability): + (‘+’ = <30)
[4]; 30 mg/kg QD orally, castrated SHO mice, initial response
  Effect on LNCaP/AR(cs) xenograft tumors (Example 1): induced tumor regression
[4]; 30 mg/kg/day oral gavage, castrate male mice
  Anti-tumor activity in the LNCaP/AR(cs) model (Example 14): robust anti-tumor activity

## CNC(=O)c1ccc(N2C(=S)N(c3ccc(C#N)c(C(F)(F)F)c3)C(=O)C2(C)C)cc1F [Enzalutamide, enzalutamide]
[5]
  Transcriptional activity on endogenous androgen-responsive genes, Class 1 resistant cells: weak transcriptional agonist
[6]
  Transcriptional activity on endogenous androgen-responsive genes, Class 2 resistant cell lines: robust transcriptional agonist activity
